Experimental data from patent US8110586B2, “8-aza-bicyclo[3.2.1]octane derivatives and their use as monoamine neurotransmitter re-uptake inhibitors” (Neurosearch A/S, priority 2006, dated 2012).
Structures can show the parent of a compound that is named as a salt.

How the values were obtained:
[1] = target: T1, reuptake of dopamine (DA) in synaptosomes (Rattus norvegicus, UniProt P23977); assay: Inhibition of dopamine reuptake in synaptosomes; format: biochemical; conditions: 3H-DA, read-out: DA-uptake IC50
T1 construct: in synaptosomes as described in WO 97/16451; from tissue

[2] = target: T2, reuptake of serotonine (5-HT) in synaptosomes (Rattus norvegicus, UniProt P31652); assay: Inhibition of serotonin reuptake in synaptosomes; format: biochemical
T2 construct: in synaptosomes as described in WO 97/16451; from tissue
Procedure: A number of compounds were tested for their ability to inhibit the reuptake of the monoamine neurotransmitters dopamine (DA) noradrenaline (NA) and serotonine (5-HT) in synaptosomes as described in WO 97/16451.
The test values are given as IC50 (the concentration (μM) of the test substance which inhibits the specific binding of ^3H-DA, ^3H-NA, or ^3H-5-HT by 50%).

T2 sequence (P31652 whole entry): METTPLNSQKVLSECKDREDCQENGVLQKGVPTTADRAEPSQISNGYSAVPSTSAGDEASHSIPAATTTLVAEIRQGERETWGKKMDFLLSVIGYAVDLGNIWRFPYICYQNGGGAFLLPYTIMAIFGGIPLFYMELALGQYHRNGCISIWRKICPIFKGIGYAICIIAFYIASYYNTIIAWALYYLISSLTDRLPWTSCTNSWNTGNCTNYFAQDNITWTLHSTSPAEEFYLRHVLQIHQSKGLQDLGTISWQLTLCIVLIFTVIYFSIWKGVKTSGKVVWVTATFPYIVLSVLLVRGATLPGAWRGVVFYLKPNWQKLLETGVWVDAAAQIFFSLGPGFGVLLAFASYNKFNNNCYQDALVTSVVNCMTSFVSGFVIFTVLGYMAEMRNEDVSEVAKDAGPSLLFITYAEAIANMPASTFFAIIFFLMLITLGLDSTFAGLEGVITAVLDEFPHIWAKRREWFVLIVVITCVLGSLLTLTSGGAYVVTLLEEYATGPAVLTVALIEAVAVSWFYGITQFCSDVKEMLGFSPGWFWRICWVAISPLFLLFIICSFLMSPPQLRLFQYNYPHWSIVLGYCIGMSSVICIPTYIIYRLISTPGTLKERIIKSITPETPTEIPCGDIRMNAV
T1 sequence (P23977 whole entry): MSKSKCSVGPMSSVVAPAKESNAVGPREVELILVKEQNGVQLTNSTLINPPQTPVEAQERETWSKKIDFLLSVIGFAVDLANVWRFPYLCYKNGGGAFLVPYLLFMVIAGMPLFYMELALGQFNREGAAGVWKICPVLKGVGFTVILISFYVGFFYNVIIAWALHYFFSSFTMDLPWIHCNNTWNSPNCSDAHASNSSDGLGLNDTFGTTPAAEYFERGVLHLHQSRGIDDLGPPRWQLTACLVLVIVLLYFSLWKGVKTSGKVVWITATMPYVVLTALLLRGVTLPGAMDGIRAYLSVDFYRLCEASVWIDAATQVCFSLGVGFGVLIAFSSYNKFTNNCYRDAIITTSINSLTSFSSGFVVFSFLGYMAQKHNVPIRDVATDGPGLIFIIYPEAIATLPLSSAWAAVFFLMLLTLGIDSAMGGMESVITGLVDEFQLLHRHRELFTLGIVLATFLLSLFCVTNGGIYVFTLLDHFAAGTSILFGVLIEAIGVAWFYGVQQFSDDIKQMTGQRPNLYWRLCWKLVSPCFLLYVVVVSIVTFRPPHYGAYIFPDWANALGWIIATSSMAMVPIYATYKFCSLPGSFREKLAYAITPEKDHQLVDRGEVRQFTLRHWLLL

Compound | melting point [°C] | IC50 [1] [nM] | IC50 [2] [nM]
COc1ccc2cc(OC3CC4CCC(C3)N4)ccc2c1 (stereo not drawn) (as salt: hydrochloric acid salt) [First compound of Example A, exo-3-(6-Methoxy-naphthalen-2-yloxy)-8-aza-bicyclo[3.2.1]octane] | 237 to 239 | – | –
COc1ccc2ccc(OC3CC4CCC(C3)N4)cc2c1 (stereo not drawn) (as salt: hydrochloric acid salt) [Last compound of Example A, exo-3-(7-Methoxy-naphthalen-2-yloxy)-8-aza-bicyclo[3.2.1]octane] | 225 | – | –
COc1ccc2cc(OC3CC4CCC(C3)N4)ccc2c1 (stereo not drawn) [First compound of Example A, exo-3-(6-Methoxy-naphthalen-2-yloxy)-8-aza-bicyclo[3.2.1]octane] | – | 420 | 26
COc1ccc2ccc(OC3CC4CCC(C3)N4)cc2c1 (stereo not drawn) [Last compound of Example A, exo-3-(7-Methoxy-naphthalen-2-yloxy)-8-aza-bicyclo[3.2.1]octane] | – | 1400 | 0.42
